Laboratory results: paper PMC9448386, “Discovery of novel conjugates of quinoline and thiazolidinone urea as potential anti-colorectal cancer agent” (Journal of Enzyme Inhibition and Medicinal Chemistry, 2022)

How the values were obtained:
HCT-116 cells = test: MTT assay, cytotoxic activity against HCT-116; assay type: cell-based; conditions: Homo sapiens, average of three separate determinations, SD shown
Description: (§1) Taking lead compound BC2021-104511-15i, Fruquintinib and Regorafenib as positive controls, the cytotoxic activity against HT-29, HCT-116, COLO-205 and FHC cell lines by MTT assay. Detailed operation could be found in our previous study.

ABL = ABL (Homo sapiens, UniProt P00519); test: Mobility shift assay, ABL; assay type: biochemical; conditions: mean of two independent experiments, SD shown
Sequence of ABL (P00519 whole entry): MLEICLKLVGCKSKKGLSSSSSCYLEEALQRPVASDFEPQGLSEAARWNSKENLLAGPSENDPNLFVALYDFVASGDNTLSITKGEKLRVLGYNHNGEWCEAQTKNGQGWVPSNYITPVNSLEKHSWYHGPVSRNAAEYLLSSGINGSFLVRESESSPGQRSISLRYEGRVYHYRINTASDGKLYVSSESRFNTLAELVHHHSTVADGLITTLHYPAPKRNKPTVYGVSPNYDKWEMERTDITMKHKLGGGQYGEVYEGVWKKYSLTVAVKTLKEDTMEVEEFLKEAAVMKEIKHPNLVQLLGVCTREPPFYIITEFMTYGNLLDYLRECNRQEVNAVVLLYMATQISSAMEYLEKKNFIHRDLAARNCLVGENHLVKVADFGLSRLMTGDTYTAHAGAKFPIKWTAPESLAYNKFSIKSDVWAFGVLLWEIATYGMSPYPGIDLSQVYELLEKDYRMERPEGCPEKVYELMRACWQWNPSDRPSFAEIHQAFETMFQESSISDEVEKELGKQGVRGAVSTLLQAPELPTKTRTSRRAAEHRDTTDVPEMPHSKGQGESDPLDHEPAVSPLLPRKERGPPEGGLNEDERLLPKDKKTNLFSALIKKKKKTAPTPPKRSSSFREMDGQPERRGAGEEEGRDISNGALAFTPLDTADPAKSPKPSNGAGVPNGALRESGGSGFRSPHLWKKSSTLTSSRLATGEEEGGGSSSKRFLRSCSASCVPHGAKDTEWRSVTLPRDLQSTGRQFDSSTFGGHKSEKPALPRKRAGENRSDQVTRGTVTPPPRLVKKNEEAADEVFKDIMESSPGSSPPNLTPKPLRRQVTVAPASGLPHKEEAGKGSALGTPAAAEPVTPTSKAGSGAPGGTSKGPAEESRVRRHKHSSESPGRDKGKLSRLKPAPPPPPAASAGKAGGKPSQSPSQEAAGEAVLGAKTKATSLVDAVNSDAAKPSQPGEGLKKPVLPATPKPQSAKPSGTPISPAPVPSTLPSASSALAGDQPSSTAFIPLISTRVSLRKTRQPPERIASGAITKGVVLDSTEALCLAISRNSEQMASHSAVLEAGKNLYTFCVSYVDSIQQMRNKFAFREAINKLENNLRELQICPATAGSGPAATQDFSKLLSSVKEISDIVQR
Protocol: (§2) Kinase inhibitory activity against HGFR, MST1R, ABL, PDGFRβ, AXL, FLT3, RET, c-Src, and VEGFR-2 was evaluated by the mobility shift assay. Detailed operation could be found in our previous research.

c-Src = c-Src (Homo sapiens, UniProt P12931); test: Mobility shift assay, c-Src; assay type: biochemical; conditions: mean of two independent experiments, SD shown
Sequence of c-Src (P12931 whole entry): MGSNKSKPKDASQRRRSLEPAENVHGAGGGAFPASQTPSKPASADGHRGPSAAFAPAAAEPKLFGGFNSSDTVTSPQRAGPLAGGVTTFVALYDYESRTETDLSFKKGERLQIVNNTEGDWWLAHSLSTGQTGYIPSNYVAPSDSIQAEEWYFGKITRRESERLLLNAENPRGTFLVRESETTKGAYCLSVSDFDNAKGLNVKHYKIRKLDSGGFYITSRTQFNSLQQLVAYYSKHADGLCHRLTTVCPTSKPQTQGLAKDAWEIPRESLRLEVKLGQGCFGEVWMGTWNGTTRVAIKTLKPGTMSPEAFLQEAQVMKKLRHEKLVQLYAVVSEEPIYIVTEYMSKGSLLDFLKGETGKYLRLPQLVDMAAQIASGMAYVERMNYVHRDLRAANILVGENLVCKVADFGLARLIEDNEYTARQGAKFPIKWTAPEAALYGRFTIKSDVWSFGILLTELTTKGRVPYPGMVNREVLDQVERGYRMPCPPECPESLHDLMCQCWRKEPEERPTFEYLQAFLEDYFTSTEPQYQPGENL
Protocol: as §2

PDGFRβ = PDGFRβ (Homo sapiens, UniProt P09619); test: Mobility shift assay, PDGFRβ; assay type: biochemical; conditions: mean of two independent experiments, SD shown
Sequence of PDGFRβ (P09619 33-1106): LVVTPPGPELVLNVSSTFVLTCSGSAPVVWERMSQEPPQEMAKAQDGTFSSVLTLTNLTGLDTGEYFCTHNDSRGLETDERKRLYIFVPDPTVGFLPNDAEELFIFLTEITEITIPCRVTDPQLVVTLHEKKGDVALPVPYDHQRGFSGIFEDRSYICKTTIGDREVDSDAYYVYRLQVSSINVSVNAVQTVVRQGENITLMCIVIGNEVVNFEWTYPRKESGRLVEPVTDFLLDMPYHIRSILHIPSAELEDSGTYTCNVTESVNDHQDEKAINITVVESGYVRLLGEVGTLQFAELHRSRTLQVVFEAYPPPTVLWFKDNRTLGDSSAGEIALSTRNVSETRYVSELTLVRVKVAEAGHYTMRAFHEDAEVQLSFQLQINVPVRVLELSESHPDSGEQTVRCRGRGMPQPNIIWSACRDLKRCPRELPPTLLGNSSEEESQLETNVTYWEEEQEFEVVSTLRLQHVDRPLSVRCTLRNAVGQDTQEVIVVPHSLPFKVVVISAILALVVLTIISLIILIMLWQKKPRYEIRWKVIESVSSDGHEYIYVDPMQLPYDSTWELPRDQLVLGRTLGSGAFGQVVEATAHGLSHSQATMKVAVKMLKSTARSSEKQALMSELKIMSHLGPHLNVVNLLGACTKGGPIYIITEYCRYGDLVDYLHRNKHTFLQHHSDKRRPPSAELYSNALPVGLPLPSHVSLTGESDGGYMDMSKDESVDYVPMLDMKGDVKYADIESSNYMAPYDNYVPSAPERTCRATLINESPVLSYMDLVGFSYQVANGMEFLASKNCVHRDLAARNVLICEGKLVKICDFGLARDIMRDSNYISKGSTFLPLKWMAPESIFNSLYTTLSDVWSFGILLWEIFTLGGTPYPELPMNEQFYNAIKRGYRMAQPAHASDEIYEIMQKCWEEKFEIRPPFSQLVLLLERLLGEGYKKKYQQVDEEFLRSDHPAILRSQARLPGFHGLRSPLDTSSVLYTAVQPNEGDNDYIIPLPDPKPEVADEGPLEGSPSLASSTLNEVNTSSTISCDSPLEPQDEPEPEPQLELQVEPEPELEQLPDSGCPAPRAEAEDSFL
Protocol: as §2

[1] = MTT assay, cytotoxicity against FHC cells; assay type: cell-based; conditions: FHC cells (normal colorectal mucosa epithelial cells); human normal colorectal mucosa epithelial cells; average of three separate determinations
Protocol: In order to investigate the cell selectivity index, the cytotoxicity of potent compounds against human normal colorectal mucosa epithelial cell FHC cells was determined.
as §1

HT-29 cells = test: MTT assay, cytotoxic activity against HT-29; assay type: cell-based, human; conditions: Homo sapiens, HT-29, average of three separate determinations, SD shown
Description: as §1

AXL = target: T1, AXL (Homo sapiens, UniProt P30530); test: Mobility shift assay, AXL; assay type: biochemical; conditions: mean of two independent experiments, SD shown
T1 sequence (P30530 26-894): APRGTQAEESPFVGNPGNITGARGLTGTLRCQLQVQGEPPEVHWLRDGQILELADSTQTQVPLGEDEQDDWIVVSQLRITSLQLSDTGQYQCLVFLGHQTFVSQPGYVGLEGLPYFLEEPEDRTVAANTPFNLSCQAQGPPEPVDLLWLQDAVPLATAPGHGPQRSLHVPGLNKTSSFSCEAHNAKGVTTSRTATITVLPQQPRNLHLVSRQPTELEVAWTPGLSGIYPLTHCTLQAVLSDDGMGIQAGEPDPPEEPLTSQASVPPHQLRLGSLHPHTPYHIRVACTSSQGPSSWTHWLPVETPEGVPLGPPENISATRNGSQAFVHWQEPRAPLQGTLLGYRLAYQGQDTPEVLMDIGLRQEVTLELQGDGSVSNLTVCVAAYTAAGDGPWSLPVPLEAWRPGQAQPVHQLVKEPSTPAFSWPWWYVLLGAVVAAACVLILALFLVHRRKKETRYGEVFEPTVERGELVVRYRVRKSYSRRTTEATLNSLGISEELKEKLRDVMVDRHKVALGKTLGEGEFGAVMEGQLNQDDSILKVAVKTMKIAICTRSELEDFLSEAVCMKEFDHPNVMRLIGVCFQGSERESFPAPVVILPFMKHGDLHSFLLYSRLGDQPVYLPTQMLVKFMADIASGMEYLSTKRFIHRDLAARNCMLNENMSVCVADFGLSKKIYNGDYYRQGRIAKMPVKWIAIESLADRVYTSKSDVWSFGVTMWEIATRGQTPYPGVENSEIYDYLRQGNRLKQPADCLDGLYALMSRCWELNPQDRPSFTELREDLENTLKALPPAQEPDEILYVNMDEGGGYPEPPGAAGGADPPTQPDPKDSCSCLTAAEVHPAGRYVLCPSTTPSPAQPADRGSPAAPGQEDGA
Protocol: as §2

HGFR = HGFR (Homo sapiens, UniProt P08581); test: Mobility shift assay, HGFR kinase inhibition; assay type: biochemical; conditions: mean of two independent experiments
Protocol: as §2

MST1R = MST1R (Homo sapiens, UniProt Q04912); test: Mobility shift assay, MST1R kinase inhibition; assay type: biochemical; conditions: mean of two independent experiments
Protocol: as §2

RET = RET (Homo sapiens, UniProt P07949); test: Mobility shift assay, RET; assay type: biochemical; conditions: mean of two independent experiments, SD shown
Protocol: as §2

VEGFR-2 = VEGFR-2 (Homo sapiens, UniProt P35968); test: Mobility shift assay, VEGFR-2; assay type: biochemical; conditions: mean of two independent experiments, SD shown
Sequence of VEGFR-2 (P35968 20-1356): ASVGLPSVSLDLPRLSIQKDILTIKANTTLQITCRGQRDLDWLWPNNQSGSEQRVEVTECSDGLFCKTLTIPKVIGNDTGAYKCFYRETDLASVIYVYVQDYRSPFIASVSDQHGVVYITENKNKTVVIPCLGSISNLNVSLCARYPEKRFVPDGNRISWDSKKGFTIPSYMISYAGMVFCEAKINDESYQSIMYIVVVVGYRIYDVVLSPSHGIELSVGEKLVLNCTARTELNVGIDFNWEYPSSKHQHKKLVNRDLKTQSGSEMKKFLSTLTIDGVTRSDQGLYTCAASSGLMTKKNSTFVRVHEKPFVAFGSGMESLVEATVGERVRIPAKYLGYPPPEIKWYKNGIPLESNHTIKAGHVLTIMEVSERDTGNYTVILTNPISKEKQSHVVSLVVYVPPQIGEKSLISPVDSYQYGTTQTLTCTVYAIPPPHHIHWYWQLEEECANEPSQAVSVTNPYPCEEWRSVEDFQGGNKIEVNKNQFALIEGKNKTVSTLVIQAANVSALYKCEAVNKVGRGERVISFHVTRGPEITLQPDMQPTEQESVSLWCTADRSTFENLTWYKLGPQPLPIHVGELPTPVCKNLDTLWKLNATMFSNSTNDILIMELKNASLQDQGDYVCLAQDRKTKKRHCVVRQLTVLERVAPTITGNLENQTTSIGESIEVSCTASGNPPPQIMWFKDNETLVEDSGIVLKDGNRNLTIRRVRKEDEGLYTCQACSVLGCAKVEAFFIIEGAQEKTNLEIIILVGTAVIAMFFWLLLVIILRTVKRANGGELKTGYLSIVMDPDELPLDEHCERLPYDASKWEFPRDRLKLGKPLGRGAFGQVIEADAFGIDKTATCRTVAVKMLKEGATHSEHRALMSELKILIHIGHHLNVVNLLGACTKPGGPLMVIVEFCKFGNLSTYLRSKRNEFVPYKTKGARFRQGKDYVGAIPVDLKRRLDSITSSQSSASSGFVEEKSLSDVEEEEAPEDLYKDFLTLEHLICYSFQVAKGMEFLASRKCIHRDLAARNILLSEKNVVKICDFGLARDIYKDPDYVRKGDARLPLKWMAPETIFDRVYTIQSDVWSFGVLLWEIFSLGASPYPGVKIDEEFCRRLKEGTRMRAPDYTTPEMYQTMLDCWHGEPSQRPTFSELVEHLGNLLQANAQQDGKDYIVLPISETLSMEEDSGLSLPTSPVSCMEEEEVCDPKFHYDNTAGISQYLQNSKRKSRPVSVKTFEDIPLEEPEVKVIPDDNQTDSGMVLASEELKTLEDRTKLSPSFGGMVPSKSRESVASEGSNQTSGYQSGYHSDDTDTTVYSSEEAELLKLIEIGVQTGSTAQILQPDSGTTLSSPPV
Protocol: as §2

FLT3 = target: T2, FLT3 (Homo sapiens, UniProt P36888); test: Mobility shift assay, FLT3; assay type: biochemical; conditions: mean of two independent experiments, SD shown
T2 sequence (P36888 27-993): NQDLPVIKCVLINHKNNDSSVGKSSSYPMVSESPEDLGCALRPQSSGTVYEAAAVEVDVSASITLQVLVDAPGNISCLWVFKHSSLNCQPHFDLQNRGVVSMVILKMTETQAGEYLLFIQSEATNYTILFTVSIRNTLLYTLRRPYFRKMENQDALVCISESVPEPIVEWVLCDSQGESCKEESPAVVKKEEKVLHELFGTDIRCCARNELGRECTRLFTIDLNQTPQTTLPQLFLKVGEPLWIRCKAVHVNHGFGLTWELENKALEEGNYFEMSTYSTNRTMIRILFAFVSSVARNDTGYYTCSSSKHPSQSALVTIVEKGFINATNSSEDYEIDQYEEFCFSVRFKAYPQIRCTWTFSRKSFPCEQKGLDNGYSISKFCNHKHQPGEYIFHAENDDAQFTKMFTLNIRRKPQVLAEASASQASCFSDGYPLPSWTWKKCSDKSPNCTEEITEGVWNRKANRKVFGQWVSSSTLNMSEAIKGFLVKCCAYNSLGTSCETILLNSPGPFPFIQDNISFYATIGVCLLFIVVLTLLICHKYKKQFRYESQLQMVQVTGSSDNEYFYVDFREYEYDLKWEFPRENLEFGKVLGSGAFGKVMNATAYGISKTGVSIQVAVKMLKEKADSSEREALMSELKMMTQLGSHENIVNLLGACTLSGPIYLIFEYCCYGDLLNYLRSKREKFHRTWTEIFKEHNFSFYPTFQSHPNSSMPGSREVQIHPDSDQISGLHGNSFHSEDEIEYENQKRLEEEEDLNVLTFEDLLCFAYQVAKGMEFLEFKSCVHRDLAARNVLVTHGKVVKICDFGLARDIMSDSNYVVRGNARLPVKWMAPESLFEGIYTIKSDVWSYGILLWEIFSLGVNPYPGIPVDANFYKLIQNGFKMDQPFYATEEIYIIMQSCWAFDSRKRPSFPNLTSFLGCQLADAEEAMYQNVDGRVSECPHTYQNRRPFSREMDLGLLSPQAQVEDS
Protocol: as §2

COLO 205 cells = test: MTT assay, cytotoxic activity against COLO 205; assay type: cell-based
Description: as §1

- IC50 (ABL): 1.68 ± 0.13 µM
- IC50 (c-Src): 0.42 ± 0.035 µM
- IC50 (PDGFRβ): 1.13 ± 0.12 µM
- IC50 (AXL): 0.95 ± 0.086 µM
- IC50 (HGFR): 0.11 µM
- IC50 (MST1R): 0.045 µM
- IC50 (RET): 1.27 ± 0.1 µM
- IC50 (VEGFR-2): 1.16 ± 0.11 µM
- IC50 (FLT3): 6.93 ± 0.73 µM
SMILES: COc1cc2c(Oc3ccc(NC(=O)NN4C(=O)CSC4c4c(F)cccc4F)cc3F)ccnc2cc1OC1CCN(CC(N)=O)CC1 (stereo not drawn) [Compound 10a, 2–(4-((4–(4-(3–(2-(2,6-Difluorophenyl)-4-oxothiazolidin-3-yl)ureido)-2-fluorophenoxy)-6-methoxyquinolin-7-yl)oxy)piperidin-1-yl)acetamide]
- IC50 (HCT-116 cells): 0.87 ± 0.11 µM
- IC50 [1]: > 10 µM
- IC50 (HT-29 cells): 1.3 ± 0.11 µM
- fold more potent than Regorafenib and Fruquintinib against COLO 205 (COLO 205 cells; COLO 205 IC50 compared with Regorafenib and Fruquintinib): over 90 fold
- cell selectivity index (FHC IC50 value vs COLO 205 IC50 value) (COLO 205 cells; COLO 205 relative to FHC cells): over 90 fold
- IC50 (COLO 205 cells; Homo sapiens, COLO 205, MTT, average of three separate determinations, SD shown): 0.11 ± 0.024 µM
